Assay results: US7803797B2, “Substituted arylcyclopentenes as therapeutic agents” (Allergan, Inc., priority 2008, dated 2010)

Key:
Type in all cases: in vivo
[1] = test system: normotensive dogs; experiment: Intraocular pressure (IOP) reduction in normotensive dogs
Description: Compounds 14a, 14b, 16a, 16b. 22a, 22b, 33a, 33b, 34a, 34b, 35a, 35b, 46a, 46b, 51a, 51 b, 58a, 58b, 69a, 69b, 70a and 70b from above are tested in vivo to measure its ability to reduce intraocular pressure. Compound 14a is tested in normotensive dogs.

[2] = test system: laser-induced hypertensive monkeys; experiment: Intraocular pressure (IOP) reduction in laser-induced hypertensive monkeys
[3] = test system: lashes and adjacent hairs of the eyelids; experiment: Clinical observation of lashes in glaucoma patients treated in one eye; conditions: glaucoma patients treated in only one eye
Excerpt: In the course of treating patients having glaucoma, treatment may only be appropriate in one eye. […] The lash appearance on the lids of the treated eyes would have appeared quite attractive if it represented a bilateral phenomenon. As a result of its asymmetric nature, the long lashes on one side could be construed as disturbing from a cosmetic standpoint. A systemic examination was preformed as a result of the asymmetric phenomenon. It soon became apparent that this altered appearance was not an isolated finding. […] Definite differences could be identified to varying degrees in the lashes and adjacent hairs of all patients who were taking the drug on a unilateral basis for longer than 6 months.
The changes in the lashes were apparent on gross inspection in several patients once attention was focused on the issue. In those with light colored hair and lashes, the differences were only seen easily with the aid of the high magnification and lighting capabilities of the slit lamp biomicroscope. In the course of glaucoma follow-up examination, attention is generally immediately focused on the eye itself. As a result of the high power magnification needed only one eye is seen at a time and the eye is seen at a high enough power that the lashes are not in focus. […]

Compound | intraocular pressure (IOP) change from baseline [1] | IOP change from baseline [2] | lash appearance, treated eye versus non-treated eye [3]
O=C(OCCN1CCOCC1)c1ccc(CCC[C@@H]2[C@@H](COc3cc(Cl)cc(CO)c3)CC[C@H]2Cl)s1 [51 b] | decreases from baseline | decreases from baseline | 
O=C(CCC/C=C\C[C@@H]1[C@@H](COc2cc(Cl)cc(CCO)c2)[C@H](O)C[C@H]1Cl)OCCO [Compound 14a] | decreases from baseline | decreases from baseline | 
O=C(CCC/C=C\C[C@@H]1[C@@H](COc2cc(Cl)cc(CCO)c2)[C@H](O)C[C@H]1Cl)OCCN1CCOCC1 [Compound 14b] | decreases from baseline | decreases from baseline | 
CC(=O)OCCc1cc(Cl)cc(OC[C@@H]2[C@@H](C/C=C\CCCC(=O)OCCO)[C@H](Cl)C[C@H]2O)c1 [Compound 16a] | decreases from baseline | decreases from baseline | 
CC(=O)OCCc1cc(Cl)cc(OC[C@@H]2[C@@H](C/C=C\CCCC(=O)OCCN3CCOCC3)[C@H](Cl)C[C@H]2O)c1 [Compound 16b] | decreases from baseline | decreases from baseline | 
COCc1cc(Cl)cc(OC[C@@H]2[C@@H](C/C=C\CCCC(=O)OCCO)[C@H](Cl)C[C@H]2O)c1 [Compound 22a] | decreases from baseline | decreases from baseline | 
COCc1cc(Cl)cc(OC[C@@H]2[C@@H](C/C=C\CCCC(=O)OCCN3CCOCC3)[C@H](Cl)C[C@H]2O)c1 [Compound 22b] | decreases from baseline | decreases from baseline | 
O=C(OCCO)c1ccc(CCC[C@@H]2[C@@H](COc3cc(Cl)cc(Cl)c3)[C@H](O)C[C@H]2Cl)s1 [Compound 33a] | decreases from baseline | decreases from baseline | 
O=C(OCCN1CCOCC1)c1ccc(CCC[C@@H]2[C@@H](COc3cc(Cl)cc(Cl)c3)[C@H](O)C[C@H]2Cl)s1 [Compound 33b] | decreases from baseline | decreases from baseline | 
Cc1cc(C)cc(OC[C@@H]2[C@@H](CCCc3ccc(C(=O)OCCO)s3)[C@H](Cl)C[C@H]2O)c1 [Compound 35a] | decreases from baseline | decreases from baseline | 
Cc1cc(C)cc(OC[C@@H]2[C@@H](CCCc3ccc(C(=O)OCCN4CCOCC4)s3)[C@H](Cl)C[C@H]2O)c1 [Compound 35b] | decreases from baseline | decreases from baseline | 
O=C(OCCO)c1ccc(CCC[C@H]2C(=O)CC[C@@H]2COc2cc(Cl)cc(CO)c2)s1 [Compound 46a] | decreases from baseline | decreases from baseline | 
O=C(OCCN1CCOCC1)c1ccc(CCC[C@H]2C(=O)CC[C@@H]2COc2cc(Cl)cc(CO)c2)s1 [Compound 46b] | decreases from baseline | decreases from baseline | 
O=C(OCCO)c1ccc(CCC[C@@H]2[C@@H](COc3cc(Cl)cc(CO)c3)CC[C@H]2Cl)s1 [Compound 51a] | decreases from baseline | decreases from baseline | 
N#C[C@@H]1C[C@@H](O)[C@H](COc2cc(Cl)cc(Cl)c2)[C@H]1CCCc1ccc(C(=O)OCCO)s1 [Compound 58a] | decreases from baseline | decreases from baseline | 
N#C[C@@H]1C[C@@H](O)[C@H](COc2cc(Cl)cc(Cl)c2)[C@H]1CCCc1ccc(C(=O)OCCN2CCOCC2)s1 [Compound 58b] | decreases from baseline | decreases from baseline | 
O=C(OCCO)c1ccc(CCCC2=CC[C@@H](O)[C@@H]2COc2cc(Cl)cc(Cl)c2)s1 [Compound 69a] | decreases from baseline | decreases from baseline | 
O=C(OCCN1CCOCC1)c1ccc(CCCC2=CC[C@@H](O)[C@@H]2COc2cc(Cl)cc(Cl)c2)s1 [Compound 69b] | decreases from baseline | decreases from baseline | 
O=C(OCCO)c1ccc(CCC[C@@H]2[C@@H](COc3cc(Cl)cc(Cl)c3)[C@H](O)C[C@H]2F)s1 [Compound 70a] | decreases from baseline | decreases from baseline | 
O=C(OCCN1CCOCC1)c1ccc(CCC[C@@H]2[C@@H](COc3cc(Cl)cc(Cl)c3)[C@H](O)C[C@H]2F)s1 [Compound 70b] | decreases from baseline | decreases from baseline | 
CCNC(=O)CCC/C=C\C[C@@H]1[C@@H](/C=C/[C@@H](O)CCc2ccccc2)[C@H](O)C[C@@H]1O [bimatoprost] |  |  | longer, thicker, and fuller in the treated eye than in the non-treated eye
